Measurements reported in patent publication US11767341B2, “Lincosamide antibiotics and uses thereof” (President and Fellows of Harvard College, priority 2017, dated 2023).
≈ marks a conversion by molar mass, not a printed value. Like-named read-outs stand apart in the source and are kept apart here.

Tests used:
Experiment in all cases: MIC determination
Type in all cases: cell-based
S. aureus ATCC 29213 = test system: S. aureus ATCC 29213
E. faecalis ATCC 29212 = settings: Enterococcus faecalis
S. pneumoniae ATCC 49619 = settings: Streptococcus pneumoniae, ATCC49619
S. pyogenes ATCC 19615 = settings: Streptococcus pyogenes, ATCC19615; S. pyogenes ATCC 19615; read-out: MIC
E. coli ATCC 25922 = settings: Escherichia coli
H. influenzae ATCC 49247 = settings: Haemophilus influenzae, ATCC49247
[1] = test system: E. coli MP-74 LptD mutant; settings: Escherichia coli
E. coli MP-9 ΔTolC = settings: Escherichia coli
[2] = test system: S. aureus MP-549 msr(a) USA 300; settings: Staphylococcus aureus, USA300, S. aureus MP-549 msr(a) USA 300
K. pneumoniae ATCC 10031 = settings: Klebsiella pneumoniae, ATCC10031
S. aureus BAA 977 iErmA = settings: Staphylococcus aureus, BAA977
[3] = S. pneumoniae ATCC 49619, read-out: MIC
[4] = ATCC25922, E. coli ATCC 25922, read-out: MIC
[5] = Staphylococcus aureus, ATCC29213, S. aureus ATCC 29213, read-out: MIC
[6] = K. pneumoniae ATCC 10031, read-out: MIC
[7] = H. influenzae ATCC 49247, read-out: MIC
[8] = Staphylococcus aureus, ATCC29213

| SMILES | MIC (S. aureus ATCC 29213; S. aureus ATCC 29213) [µg/mL] | MIC (E. faecalis ATCC 29212; ATCC29212, read-out: MIC) [µg/mL] | MIC (S. pneumoniae ATCC 49619; [3]) [µg/mL] | MIC (S. pyogenes ATCC 19615) [µg/mL] | MIC (E. coli ATCC 25922; [4]) [µg/mL] | MIC (H. influenzae ATCC 49247) [µg/mL] | MIC [1] [µg/mL] | MIC (E. coli MP-9 ΔTolC) [µg/mL] | MIC [2] [µg/mL] | MIC (K. pneumoniae ATCC 10031) [µg/mL] | MIC (S. aureus ATCC 29213; [5]) [µg/mL] | MIC (E. coli ATCC 25922; ATCC25922) [µg/mL] | MIC (S. pneumoniae ATCC 49619) [µg/mL] | MIC (K. pneumoniae ATCC 10031; [6]) [µg/mL] | MIC (E. faecalis ATCC 29212; ATCC29212) [µg/mL] | MIC (S. aureus BAA 977 iErmA) [µg/mL] | MIC (H. influenzae ATCC 49247; [7]) [µg/mL] | MIC (S. aureus ATCC 29213; [8]) [µg/mL] |
| --- | --- | --- | --- | --- | --- | --- | --- | --- | --- | --- | --- | --- | --- | --- | --- | --- | --- | --- |
| CSC1O[C@H]([C@H](NC(=O)[C@H]2NC[C@@H]3C[C@@H](c4ccc(C#N)cc4)CCO[C@H]32)[C@H](C)Cl)C(O)[C@@H](O)[C@H]1O (stereo partly drawn) [FSA-511046] | 1 (≈ 1.85 µM) | 1 (≈ 1.85 µM) | ≤ 0.06 | ≤ 0.06 | > 64 | 16 (≈ 29.6 µM) | 32 (≈ 59.3 µM) | 8 (≈ 14.8 µM) | 0.5 (≈ 0.926 µM) | 16 (≈ 29.6 µM) | – | – | – | – | – | – | – | – |
| CSC1O[C@H]([C@H](NC(=O)[C@H]2NC[C@@H]3C[C@@H](C4CCN(C)CC4)CCO[C@H]32)[C@H](C)Cl)C(O)[C@@H](O)[C@H]1O (stereo partly drawn) [FSA-512012] | – | 64 (≈ 119 µM) | 1 (≈ 1.87 µM) | 4 (≈ 7.46 µM) | – | > 256 | > 256 | > 256 | 8 (≈ 14.9 µM) | – | 8 (≈ 14.9 µM) | > 256 | – | – | – | – | – | – |
| CSC1O[C@H]([C@H](NC(=O)[C@H]2NC[C@@H]3CC(c4ccc(C)cc4)CCO[C@H]32)[C@H](C)Cl)C(O)[C@@H](O)[C@H]1O (stereo partly drawn) [FSA-511044] | – | 2 (≈ 3.78 µM) | – | ≤ 0.06 | > 64 | 16 (≈ 30.2 µM) | 16 (≈ 30.2 µM) | 16 (≈ 30.2 µM) | 0.5 (≈ 0.945 µM) | – | 0.25 (≈ 0.473 µM) | – | 0.5 (≈ 0.945 µM) | 32 (≈ 60.5 µM) | – | – | – | – |
| CSC1O[C@H]([C@H](NC(=O)[C@H]2NC[C@@H]3CC=CCO[C@@H]32)[C@H](C)Cl)C(O)[C@@H](O)[C@H]1O (stereo partly drawn) [FSA-504059] | – | – | 0.25 (≈ 0.572 µM) | 0.12 (≈ 0.275 µM) | – | > 64 | > 64 | > 64 | 2 (≈ 4.58 µM) | > 64 | 2 (≈ 4.58 µM) | > 64 | – | – | 32 (≈ 73.2 µM) | – | – | – |
| CSC1O[C@H]([C@H](NC(=O)[C@H]2NC[C@@H]3C=C(C#Cc4cccc(F)c4)CCO[C@@H]23)[C@H](C)Cl)C(O)[C@@H](O)[C@H]1O (stereo partly drawn) [FSA-510003] | – | 1 (≈ 1.8 µM) | 0.25 (≈ 0.45 µM) | 0.25 (≈ 0.45 µM) | – | – | 32 (≈ 57.7 µM) | > 64 | – | – | 0.5 (≈ 0.901 µM) | > 64 | – | 16 (≈ 28.8 µM) | – | 0.25 (≈ 0.45 µM) | 16 (≈ 28.8 µM) | – |
| CSC1O[C@H]([C@H](NC(=O)[C@H]2NC[C@@H]3CC(c4cccc5cnccc45)=CCO[C@H]32)[C@H](C)Cl)C(O)[C@@H](O)[C@H]1O (stereo partly drawn) [FSA-510006] | – | 16 (≈ 28.4 µM) | 1 (≈ 1.77 µM) | 0.5 (≈ 0.886 µM) | – | > 64 | 64 (≈ 113 µM) | > 64 | – | > 64 | 8 (≈ 14.2 µM) | > 64 | – | – | – | 16 (≈ 28.4 µM) | – | – |
| CSC1O[C@H]([C@H](NC(=O)[C@@H]2[C@@H]3OCC=CC[C@H]3CN2C2CC2)[C@H](C)Sc2ccc(-c3cccnc3)cc2)C(O)C(O)[C@H]1O (stereo partly drawn) [FSA-214009a] | – | > 64 | 4 (≈ 6.37 µM) | 4 (≈ 6.37 µM) | > 64 | – | – | – | – | – | 64 (≈ 102 µM) | – | – | – | – | – | – | – |
| CSC1O[C@H]([C@H](NC(=O)[C@H]2NC[C@@H]3C[C@H](c4ccc(C)cc4)CCO[C@H]32)[C@H](C)Cl)C(O)[C@@H](O)[C@H]1O (stereo partly drawn) [FSA-512079c] | – | 2 (≈ 3.78 µM) | – | ≤ 0.12 | > 128 | 16 (≈ 30.2 µM) | 16 (≈ 30.2 µM) | 8 (≈ 15.1 µM) | 0.5 (≈ 0.945 µM) | 16 (≈ 30.2 µM) | – | – | – | – | – | – | – | 0.5 (≈ 0.945 µM) |
| CSC1O[C@H]([C@H](NC(=O)[C@H]2NC[C@@H]3C=C(c4ccc(C)cc4)CCO[C@@H]23)[C@H](C)Cl)C(O)[C@@H](O)[C@H]1O (stereo partly drawn) [FSA-512075] | – | 2 (≈ 3.79 µM) | 0.25 (≈ 0.474 µM) | 0.25 (≈ 0.474 µM) | > 256 | 64 (≈ 121 µM) | 64 (≈ 121 µM) | 32 (≈ 60.7 µM) | 0.25 (≈ 0.474 µM) | – | 0.5 (≈ 0.949 µM) | – | – | – | – | – | – | – |
| CSC1O[C@H]([C@H](NC(=O)[C@H]2NC[C@@H]3C=C(C#Cc4ccccc4)CCO[C@@H]23)[C@H](C)Cl)C(O)[C@@H](O)[C@H]1O (stereo partly drawn) [FSA-510002] | – | 2 (≈ 3.72 µM) | 0.25 (≈ 0.465 µM) | 0.25 (≈ 0.465 µM) | – | 32 (≈ 59.6 µM) | 32 (≈ 59.6 µM) | > 64 | – | – | 0.5 (≈ 0.931 µM) | > 64 | – | 64 (≈ 119 µM) | – | 0.25 (≈ 0.465 µM) | – | – |
| CSC1O[C@H]([C@H](NC(=O)[C@H]2NC[C@@H]3C[C@@H](C4CCNCC4)CCO[C@H]32)[C@H](C)Cl)C(O)[C@@H](O)[C@H]1O (stereo partly drawn) [FSA-512011] | – | 64 (≈ 123 µM) | 1 (≈ 1.92 µM) | 4 (≈ 7.66 µM) | – | > 256 | > 256 | > 256 | 8 (≈ 15.3 µM) | – | 8 (≈ 15.3 µM) | > 256 | – | – | – | – | – | – |
| COc1ccc(C2=C[C@H]3CN[C@H](C(=O)N[C@H]([C@H](C)Cl)[C@H]4OC(SC)[C@H](O)[C@H](O)C4O)[C@@H]3OCC2)cc1 (stereo partly drawn) [FSA-512076] | – | 2 (≈ 3.68 µM) | ≤ 0.12 | ≤ 0.12 | > 256 | – | 64 (≈ 118 µM) | 64 (≈ 118 µM) | 0.25 (≈ 0.46 µM) | – | 0.25 (≈ 0.46 µM) | – | – | – | – | – | 128 (≈ 236 µM) | – |
| CSC1O[C@H]([C@H](NC(=O)[C@H]2NC[C@@H]3CC(NC4CC4)CCO[C@H]32)[C@H](C)Cl)C(O)[C@@H](O)[C@H]1O (stereo partly drawn) [FSA-510011] | – | – | 8 (≈ 16.2 µM) | 2 (≈ 4.05 µM) | – | > 64 | > 64 | > 64 | – | > 64 | 32 (≈ 64.8 µM) | > 64 | – | – | > 64 | 32 (≈ 64.8 µM) | – | – |
| CSC1O[C@H]([C@H](NC(=O)[C@H]2NC[C@@H]3C[C@@H](c4ccc(C)cc4)CCO[C@H]32)[C@H](C)Cl)C(O)[C@@H](O)[C@H]1O (stereo partly drawn) [FSA-512079b] | – | 1 (≈ 1.89 µM) | – | ≤ 0.12 | > 128 | 16 (≈ 30.2 µM) | 16 (≈ 30.2 µM) | 8 (≈ 15.1 µM) | 0.5 (≈ 0.945 µM) | 16 (≈ 30.2 µM) | – | – | – | – | – | – | – | 0.5 (≈ 0.945 µM) |
| CSC1O[C@H]([C@H](NC(=O)[C@H]2NC[C@@H]3C=C(c4ccc(C#N)cc4)CCO[C@@H]23)[C@H](C)Cl)C(O)[C@@H](O)[C@H]1O (stereo partly drawn) [FSA-512077] | – | 1 (≈ 1.86 µM) | ≤ 0.12 | ≤ 0.12 | > 256 | – | 64 (≈ 119 µM) | 16 (≈ 29.7 µM) | 0.25 (≈ 0.465 µM) | – | 0.5 (≈ 0.929 µM) | – | – | – | – | – | 128 (≈ 238 µM) | – |
| CSC1O[C@H]([C@H](NC(=O)[C@H]2NC[C@@H]3CC(c4ccc(-c5ccccc5)cc4)=CCO[C@H]32)[C@H](C)Cl)C(O)[C@@H](O)[C@H]1O (stereo partly drawn) [FSA-510001] | – | – | 4 (≈ 6.79 µM) | 2 (≈ 3.39 µM) | – | – | 8 (≈ 13.6 µM) | > 64 | – | > 64 | 2 (≈ 3.39 µM) | > 64 | – | – | 8 (≈ 13.6 µM) | 2 (≈ 3.39 µM) | 16 (≈ 27.2 µM) | – |
| CCOC(=O)CCN1C[C@@H]2CC=CCO[C@H]2[C@H]1C(=O)N[C@H]([C@H](C)Sc1ccc(-c2cccnc2)cc1)[C@H]1OC(SC)[C@H](O)[C@H](O)C1O (stereo partly drawn) [FSA-214009b] | – | > 64 | 32 (≈ 46.5 µM) | 8 (≈ 11.6 µM) | > 64 | – | – | – | – | – | > 64 | – | – | – | – | – | – | – |
